The term IC50 denotes the point on the concentration scale where inhibition reaches its midpoint. Low values mean higher potency, high ones lower potency. For orientation: Ki means a dissociation constant, usually derived from enzyme kinetics or from competition with a known ligand. Low readings indicate a stronger hold on the target, high ones a looser hold on the target.

In ChEMBL document CHEMBL1122949, “Pepstatin-derived inhibitors of aspartic proteinases. A close look at an apparent transition-state analogue inhibitor” (J Med Chem, 1985) one finds IC50 and Ki data, which are given here for 22 molecules.

In experiment [1] the target is T1, Renin (Homo sapiens, UniProt P00797).
T1 sequence (P00797 whole entry): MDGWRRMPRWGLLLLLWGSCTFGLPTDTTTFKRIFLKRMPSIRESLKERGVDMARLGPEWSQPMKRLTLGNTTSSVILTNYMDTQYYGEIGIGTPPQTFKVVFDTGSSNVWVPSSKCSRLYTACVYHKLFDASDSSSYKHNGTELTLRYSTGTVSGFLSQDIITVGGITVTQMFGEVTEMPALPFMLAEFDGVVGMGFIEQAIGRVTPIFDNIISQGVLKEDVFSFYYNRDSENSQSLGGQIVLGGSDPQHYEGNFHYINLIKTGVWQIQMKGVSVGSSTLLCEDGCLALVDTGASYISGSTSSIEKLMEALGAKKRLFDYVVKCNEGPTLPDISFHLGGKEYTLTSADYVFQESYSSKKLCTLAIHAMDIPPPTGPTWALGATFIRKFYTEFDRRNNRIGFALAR
Kind of experiment: Compound was evaluated for the ability to inhibit human plasma renin. Format: cell-free.

The nature of experiment [2]: Compound was evaluated for the ability to inhibit penicillopepsin.
In experiment [3] the target is Pepsin A (Sus scrofa, UniProt P00791). Kind of experiment: Inhibition of porcine pepsin.

Numbered stars: 1 amine (or outer) side, 2 acyl side, 3 side chain; on linkers, the order of the positions; unused ones are H or OH. Square brackets hold non-standard residues; d marks the D form. Peptide text beside a SMILES is read from it. * marks the point of attachment. ξ: configuration not given here. X1 = CC[C@H](C)[C@H](NC(=O)[C@H](CC(C)C)NC[C@H](CC(C)C)N*)C(=O)N[C@@H](Cc1c[nH]cn1)C(=O)O; LeuΨ(ξCHOHCH2)Val = CC(C)C[C@H](N[*:1])C(O)C[C@H](C(=O)[*:2])C(C)C; Sta(3ξ) = CC(C)C[C@H](N[*:1])C(O)CC(=O)[*:2]; Isovaleryl = CC(C)CC(=O)*; Boc = CC(C)(C)OC(=O)*

Sequence of Pepsin A (P00791 whole entry): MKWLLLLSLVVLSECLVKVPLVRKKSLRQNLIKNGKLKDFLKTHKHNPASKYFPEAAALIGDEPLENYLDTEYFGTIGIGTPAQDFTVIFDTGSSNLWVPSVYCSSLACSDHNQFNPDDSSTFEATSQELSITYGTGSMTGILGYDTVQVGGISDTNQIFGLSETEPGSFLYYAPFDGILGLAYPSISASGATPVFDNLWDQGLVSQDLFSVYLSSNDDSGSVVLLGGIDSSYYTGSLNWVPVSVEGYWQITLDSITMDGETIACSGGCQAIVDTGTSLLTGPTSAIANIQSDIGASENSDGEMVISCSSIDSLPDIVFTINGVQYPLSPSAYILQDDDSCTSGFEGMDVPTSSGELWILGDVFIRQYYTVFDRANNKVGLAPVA

In experiment [1], `CC[C@H](C)[C@H](NC(=O)[C@H](CC(C)C)NC[C@H](CC(C)C)NC(=O)[C@H](Cc1c[nH]cn1)NC(=O)[C@H](Cc1ccccc1)NC(=O)[C@@H]1CCCN1C(=O)[C@H](Cc1c[nH]cn1)NC(=O)[C@@H]1CCCN1)C(=O)N[C@@H](Cc1c[nH]cn1)C(=O)O` (H-PHPFH-X1) displayed an IC50 of 10 nM.

Take `CC(C)CCC(=O)NC(=O)[C@H](C)NC(=O)CC(=O)[C@H](CC(C)C)NC(=O)[C@@H](NC(=O)[C@@H](NC(=O)CC(C)C)C(C)C)C(C)C`: the Ki was determined as 85 nM in experiment [2] and 10 nM in experiment [3].

With `CC[C@H](C)[C@H](NC(=O)[C@H](CC(C)C)NC[C@H](CC(C)C)NC(=O)C(Cc1c[nH]cn1)NC(=O)[C@H](Cc1ccccc1)NC(=O)[C@@H]1CCCN1C(=O)C(N)Cc1c[nH]cn1)C(=O)NC(Cc1c[nH]cn1)C(=O)O` (stereo in doubt), in experiment [1], half-maximal inhibition (IC50) was put at 1000 nM.

In turn, `CC(C)CNC(=O)[C@@H](C)NC(=O)[C@@H](C)CC(=O)[C@H](CC(C)C)NC(=O)[C@@H](NC(=O)CC(C)C)C(C)C` showed a Ki in experiment [3] of 110 nM.

Regarding `CC[C@H](C)[C@H](NC(=O)[C@@H](CC(O)[C@H](CC(C)C)NC(=O)[C@H](Cc1cnc[nH]1)NC(=O)[C@H](Cc1ccccc1)NC(=O)[C@@H]1CCCN1C(=O)[C@H](Cc1cnc[nH]1)NC(=O)OC(C)(C)C)C(C)C)C(=O)N[C@@H](Cc1cnc[nH]1)C(=O)O` (some centres not stated) (Boc-HPFH[LeuΨ(ξCHOHCH2)Val]IH-OH), in experiment [1], the IC50 amounted to 0.7 nM.

Consider `CC(C)CC(=O)N[C@H](C(=O)N[C@H](C(=O)N[C@@H](CC(C)C)[C@@H](O)CC(=O)N[C@@H](C)C(=O)N[C@@H](CC(C)C)[C@@H](O)CC(=O)O)C(C)C)C(C)C` [PEPSTATIN], for which the inhibition constant (Ki) in experiment [2] was 0.15 nM; in experiment [3], 0.056 nM.

`CC(C)CCC(=O)NC(=O)CNC(=O)CC(O)[C@@H](CC(C)C)NC(=O)[C@H](NC(=O)CC(C)C)C(C)C` (some centres not stated) showed a Ki in experiment [3] of 56 nM.

For the molecule `CC(C)CCC(=O)NC(=O)C(C)NC(=O)CC(O)[C@H](CC(C)C)NC(=O)[C@@H](NC(=O)[C@@H](NC(=O)CC(C)C)C(C)C)C(C)C` (some centres not stated), the affinity in experiment [3], expressed as Ki, was 2000 nM.

On to `CC(C)CNC(=O)CNC(=O)[C@@H](C)CC(O)[C@@H](CC(C)C)NC(=O)[C@H](NC(=O)CC(C)C)C(C)C` (some centres not stated), for which the inhibition constant (Ki) in experiment [3] was 53 nM.

In turn, `CC(C)CNC(=O)[C@H](C)NC(=O)[C@@H](C)CC(O)[C@@H](CC(C)C)NC(=O)[C@H](NC(=O)CC(C)C)C(C)C` (stereo in doubt; 16a(4S)) showed a Ki in experiment [3] of 3 nM.

In the case of `CC(C)CC(=O)N[C@H](C(=O)N[C@H](C(=O)N[C@H](CCC(=O)NC(C)C(=O)N[C@H](CCC(=O)O)CC(C)C)CC(C)C)C(C)C)C(C)C` (some centres not stated), affinity in experiment [3] was put at a Ki of 210 nM.

As to `CCOC(=O)CC(O)[C@H](CC(C)C)NC(=O)[C@@H](NC(=O)[C@@H](NC(=O)CC(C)C)C(C)C)C(C)C` (some centres not stated), the values for the inhibition constant Ki in experiment [2] and in experiment [3] were 47 nM and 10 nM, respectively.

Take `CC(C)CNC(=O)[C@H](C)NC(=O)[C@@H](C)CC(O)[C@@H](CC(C)C)NC(=O)[C@H](NC(=O)CC(C)C)C(C)C` (stereo in doubt; 16b(4R)): the Ki in experiment [3] is 700 nM.

In turn, `CC[C@H](C)[C@H](NC(=O)[C@H](Cc1ccccc1)NC(=O)[C@H](Cc1ccccc1)NC(=O)[C@H](Cc1c[nH]cn1)NC(=O)[C@H](Cc1ccccc1)NC(=O)[C@@H]1CCCN1C(=O)[C@H](Cc1c[nH]cn1)NC(=O)[C@@H]1CCCN1)C(=O)N[C@@H](Cc1c[nH]cn1)C(=O)O` yielded an IC50 in experiment [1] of 7000 nM.

With `CC(C)CCC(=O)NC(=O)[C@H](C)NC(=O)CC(O)[C@@H](CC(C)C)N(C)C(=O)[C@H](NC(=O)[C@@H](NC(=O)CC(C)C)C(C)C)C(C)C` (stereo in doubt; 13a(3s)), the Ki was above 5000 nM in experiment [2] and 1200 nM in experiment [3].

In experiment [1], `CC[C@H](C)[C@H](NC(=O)CC(O)[C@H](CC(C)C)NC(=O)[C@H](Cc1c[nH]cn1)NC(=O)[C@H](Cc1ccccc1)NC(=O)[C@@H]1CCCN1C(=O)[C@H](Cc1c[nH]cn1)NC(=O)CC(C)C)C(=O)N[C@@H](Cc1ccccc1)C(N)=O` (some centres not stated) (Isovaleryl-HPFH[Sta(3ξ)]IF-NH2) showed an IC50 of 1.9 nM.

In experiment [3], `CC(C)CCC(=O)NC(=O)[C@@H](C)NC(=O)CC(=O)[C@H](CC(C)C)NC(=O)[C@@H](NC(=O)CC(C)C)C(C)C` came in with a Ki of 56 nM. This counts as double-digit nanomolar.

In experiment [3], `CC(C)CCC(=O)NC(=O)[C@H](C)NC(=O)CC(O)[C@@H](Cc1ccccc1)NC(=O)[C@H](NC(=O)CC(C)C)C(C)C` (some centres not stated) had a Ki of 0.9 nM.

In experiment [3], `CC(C)CCC(=O)NC(=O)[C@H](C)NC(=O)CCC(O)[C@@H](CC(C)C)NC(=O)[C@H](NC(=O)CC(C)C)C(C)C` (some centres not stated) returned a Ki of 50 nM.

Turning to `CC(C)CCC(=O)NC(=O)[C@@H](C)NC(=O)CC(O)[C@H](CC(C)C)NC(=O)[C@@H](NC(=O)CC(C)C)C(C)C` (some centres not stated), the inhibition constant (Ki) in experiment [2] came out at 7600 nM; in experiment [3] it was 3 nM.

On to `CC(C)CCC(=O)NC(=O)[C@@H](C)CC(O)[C@@H](CC(C)C)NC(=O)[C@H](NC(=O)CC(C)C)C(C)C` (some centres not stated), for which, in experiment [3], the Ki worked out at 27 nM.

Take `CC[C@H](C)[C@H](NC(=O)CC(O)[C@H](CC(C)C)NC(=O)[C@H](Cc1c[nH]cn1)NC(=O)[C@H](Cc1ccccc1)NC(=O)[C@@H]1CCCN1C(=O)[C@H](Cc1c[nH]cn1)NC(=O)CC(C)C)C(=O)N[C@@H](Cc1ccccc1)C(=O)OC` (some centres not stated) (Isovaleryl-HPFH[Sta(3ξ)]IF-OMe): the midpoint of inhibition in experiment [1], the IC50, lay at 0.6 nM.
